# Measurements as given in patent US9320736B2, “Zinc chelating agents for depleting XIAP and sensitizing tumor cells to apoptosis” (Institute for Cancer Research, priority 2012, dated 2016).
# “Also recorded” adds a separate entry of the source.
# How the values were obtained:
# PC-3 tumors = assay: PC-3 tumor growth in ectopic xenograft mouse model of prostate cancer; assay type: in vivo; settings: 5-Ala ip 10 mg/mouse daily combined with HGS-ETR1 iv 0.25 mg/mouse once a week, PC-3 tumors in male C.B17/Icr-scid mice, FIG. 2
# Experimental: PC-3 tumors were established in male C.B17/Icr-scid mice. When tumor volumes reach approximately 200 mm^3, the animals were grouped (n=5 for each group) and treated with saline (control), an ip injection of 5-Ala (10 mg/mouse, daily) and/or an iv injection of HGS-ETR1 (0.25 mg/mouse once a week).
# XIAP [1] = assay: XIAP depletion in PC-3 cells by Western blot / immunoblotting; assay type: cell-based, human; settings: for XIAP depletion (Western blot): chelator 50 μM, 4 hours, FIG. 3/4; for depletion of XIAP compared with TPEN: prostate cancer cells
# Experimental: PC-3 cells were cultured in medium alone, or in the presence of PPIX (50 μM) for 4 hours, or 5-Ala (250 μM) for 24 hours. Expression of XIAP and GAPDH (control) was detected by immunoblotting with an antibody to XIAP or GADPH, respectively.
# Cell Lines and Culture Conditions. A PC-3 castration-resistant prostate cancer cell line was obtained from the American Type and Culture Collection (Rockville, Md.). PC-3 cells were maintained in complete cell culture medium (RPMI 1640 medium (Bio-Whittaker, Walkersville, Md.) supplemented with 10% FCS (Hyclone, Logan, Utah), gentamicin (50 mg/L), sodium pyruvate (1 mM) and non-essential amino acids (0.1 mM)).
# Analysis of XIAP Depletion in PC-3 Cell Line Following Administration of Heterocyclic Zn Chelators. PC-3 cells were cultured under three distinct conditions; medium alone, with administration of TPEN (8 μM) as a positive control for 2 hours, and with administration of an individual Zn chelators (MR) (50 μM) for 4 hours.
# Western blot analysis was performed to assess for level of XIAP depletion. Whole cell lysates were prepared as described previously (Kolenko V et al. (1999) J. Immunol. 163: 590-8). Protein concentrations were measured with BCA protein assay reagents (Pierce, Rockford, Ill.). Equivalent amounts of proteins (20 μg) were mixed with an equal volume of 2× Laemmli sample buffer, boiled and resolved by electrophoresis in 10% sodium dodecyl sulfate-polyacrylamide gels (SDS-PAGE). The proteins were transferred from the gel to a nitrocellulose membrane using an electroblotting apparatus (Bio-Rad) (15 V, 3 mA/cm2 for 24 minutes).
# Membranes were then incubated in a blocking solution containing 5% nonfat dry milk overnight to inhibit nonspecific binding. The membranes were then incubated with specific antibody (1-3 μg/ml) for 2 hours. After washing in TRIS/0.1% Tween 20 for 30 minutes, membranes were incubated for another 30 minutes with horseradish peroxidase-conjugated secondary antibody. The membranes were then washed and developed with enhanced chemiluminescence (ECL Western Blotting Kit, Amersham, Arlington Heights, Ill.).
# PC-3 cells = assay: TRAIL-mediated apoptosis in PC-3 cells (DNA fragmentation assay); assay type: cell-based, human; settings: chelator combined with TRAIL, FIG. 4
# [2] = Intravenous tolerability in C.B17/Icr-scid mice; assay type: in vivo; settings: two 6 week-old male C.B17/Icr-scid mice, iv 100 μl at 15 mM
# Experimental: Animal Studies. Two 6 week-old male C.B17/Icr-scid mice were injected intravenously with 100 μl of MR13 chelator at final concentration of 15 mM.
# malignant cells = assay: Potentiation of therapeutic agents by TPEN in malignant cells; assay type: cell-based; settings: specific to malignant, not benign cells
# Text: (§1) The inhibition of XIAP expression is selective, as TPEN has no effect on the expression levels of other zinc-containing members of IAP family, i.e., cIAP1, cIAP2 and surviving. As well, the XIAP mRNA level is not reduced in TPEN-treated cells. Therefore, zinc chelation by TPEN induces depletion of XIAP specifically at the protein level. […] Importantly, the sensitization to therapeutic agents is specific to malignant but not to benign cells. This cytotoxic specificity for malignant cells is consistent with experiments showing that XIAP is preferentially degraded in malignant but not in benign cells upon zinc chelation and stems from blunted regulation of zinc uptake transporters upon carcinogenesis.
# XIAP [3] = assay: XIAP protein levels in xenograft animal model of human prostate cancer; assay type: in vivo
# Text: as §1
# XIAP mRNA = XIAP mRNA level in TPEN-treated cells; assay type: cell-based
# Text: as §1
# XIAP [4] = settings: human prostate cancer cells; Makhov et al. 2008; cited from earlier work
# [5] = test system: cIAP1, cIAP2 and surviving; assay: Expression of other zinc-containing IAP family members in TPEN-treated cells; assay type: cell-based
# Text: as §1
Structure (SMILES),promotion of TRAIL-mediated cell death / apoptotic response (PC-3 cells),XIAP depletion (Western blot) (XIAP [1]; PC-3 cells),depletion of XIAP compared with TPEN (XIAP [1]),also measured
"NCC(=O)CCC(=O)O [5-Ala, 5-aminolevulinic acid, reference compound]",–,–,–,"tumor growth / antitumor effect (PC-3 tumors): augments HGS-ETR1 the antitumor effect; tumor growth / antitumor effect (PC-3 tumors; listed as 5-ALA): completely arrested tumor growth; XIAP expression (immunoblot) (XIAP [1]; PC-3 cells, 5-Ala 250 μM, 24 hours, FIG. 1): reduces XIAP levels; also recorded: significantly reduced XIAP expression"
O=S(=O)(Nc1cccc2cccnc12)c1ccc(F)c(Cl)c1 [MR13],promoted TRAIL-mediated cell death,completely depleted XIAP,at least as effectively as TPEN,tolerability of intravenous administration [2]: well tolerated
N#Cc1ccc(S(=O)(=O)Nc2cccc3cccnc23)cc1 [MR44],promoted TRAIL-mediated cell death,completely depleted XIAP,at least as effectively as TPEN,–
O=S(=O)(Nc1ccccc1-c1nc2ccccc2[nH]1)c1ccc(F)cc1 [MR66],did not succeeded in producing an apoptotic response,failed to induce XIAP depletion,–,–
O=S(=O)(Nc1ccccc1-c1nc2ccccc2[nH]1)c1c(F)cccc1F [MR96],did not succeeded in producing an apoptotic response,failed to induce XIAP depletion,–,–
"c1ccc(CN(CCN(Cc2ccccn2)Cc2ccccn2)Cc2ccccn2)nc1 [TPEN, N,N,N′,N′-tetrakis(2-pyridylmethyl)-ethylenediamine]",–,–,–,potentiation of the action of HGS-ETR1 (mapatumumab) and docetaxel (malignant cells): markedly potentiated; XIAP protein levels in vivo (XIAP [3]): rapid decrease of XIAP protein levels; XIAP mRNA level (XIAP mRNA): not reduced; depletion of XIAP (XIAP [4]): selective and rapid depletion; also recorded: rapidly depletes XIAP; effect on expression levels of other zinc-containing IAP family members [5]: no effect
